Measurements published in the NIST ThermoML archive (doi:10.1016/j.tca.2009.06.015).

Legend:
[1] = xn = mol fraction of the nth substance listed; details: 101 kPa, Liquid; for viscosity: Capillary tube (Ostwald / Ubbelohde) method; for mass density: Vibrating tube method
[2] = refractive index (Na D-line) (dimensionless); xn = mol fraction of the nth substance listed; details: 101 kPa, Liquid, Standard Abbe refractometry

CCCCC(C)O (configuration not stated) [2-hexanol] + CC#N
Details | mass density, [1] [kg/m3] | refractive index, [2] | viscosity, [1] [mPa·s]
293.15 K, x2 = 0 | 814.08 | 1.4135 | 5.155
293.15 K, x2 = 0.0964 | 812.14 | 1.4103 | 3.491
293.15 K, x2 = 0.1813 | 810.22 | 1.4077 | 2.696
293.15 K, x2 = 0.2574 | 808.34 | 1.4051 | 2.128
293.15 K, x2 = 0.3436 | 806.07 | 1.4014 | 1.684
293.15 K, x2 = 0.4483 | 803.11 | 1.3972 | 1.276
293.15 K, x2 = 0.5398 | 800.33 | 1.3917 | 1.006
293.15 K, x2 = 0.6495 | 796.76 | 1.3837 | 0.7676
293.15 K, x2 = 0.758 | 792.88 | 1.3739 | 0.582
293.15 K, x2 = 0.8733 | 788.19 | 1.3621 | 0.4444
293.15 K, x2 = 0.9579 | 784.29 | 1.351 | 0.3758
298.15 K, x2 = 0 | 810.14 | 1.4116 | 4.1
298.15 K, x2 = 0.0964 | 808.14 | 1.4096 | 2.933
298.15 K, x2 = 0.1813 | 806.14 | 1.4078 | 2.284
298.15 K, x2 = 0.2574 | 804.19 | 1.4054 | 1.84
298.15 K, x2 = 0.3436 | 801.82 | 1.4022 | 1.475
298.15 K, x2 = 0.4483 | 798.72 | 1.3975 | 1.133
298.15 K, x2 = 0.5398 | 795.82 | 1.3924 | 0.9062
298.15 K, x2 = 0.6495 | 792.09 | 1.3837 | 0.6995
298.15 K, x2 = 0.758 | 788.02 | 1.373 | 0.5384
298.15 K, x2 = 0.8733 | 783.08 | 1.3595 | 0.4184
298.15 K, x2 = 0.9579 | 779.02 | 1.348 | 0.3583
303.15 K, x2 = 0 | 806.13 | 1.4093 | 3.41
303.15 K, x2 = 0.0964 | 804.04 | 1.4082 | 2.491
303.15 K, x2 = 0.1813 | 801.94 | 1.4064 | 1.967
303.15 K, x2 = 0.2574 | 799.91 | 1.4044 | 1.61
303.15 K, x2 = 0.3436 | 797.49 | 1.4021 | 1.301
303.15 K, x2 = 0.4483 | 794.38 | 1.3979 | 1.017
303.15 K, x2 = 0.5398 | 791.33 | 1.3925 | 0.8212
303.15 K, x2 = 0.6495 | 787.45 | 1.3839 | 0.6409
303.15 K, x2 = 0.758 | 783.07 | 1.374 | 0.5036
303.15 K, x2 = 0.8733 | 777.74 | 1.3596 | 0.3943
303.15 K, x2 = 0.9579 | 773.37 | 1.345 | 0.3411
308.15 K, x2 = 0 | 802.06 | 1.4077 | 2.819
308.15 K, x2 = 0.0964 | 799.97 | 1.4069 | 2.134
308.15 K, x2 = 0.1813 | 797.84 | 1.4061 | 1.708
308.15 K, x2 = 0.2574 | 795.74 | 1.4049 | 1.42
308.15 K, x2 = 0.3436 | 793.18 | 1.4026 | 1.155
308.15 K, x2 = 0.4483 | 789.88 | 1.3979 | 0.9154
308.15 K, x2 = 0.5398 | 786.73 | 1.3925 | 0.7511
308.15 K, x2 = 0.6495 | 782.83 | 1.3844 | 0.5933
308.15 K, x2 = 0.758 | 778.36 | 1.3745 | 0.4724
308.15 K, x2 = 0.8733 | 772.84 | 1.361 | 0.3759
308.15 K, x2 = 0.9579 | 768.23 | 1.3469 | 0.3263
